Assay results published in PubChem BioAssay AID248 (DTP/NCI, 2004).
Where “and” joins values, the source holds several entries; their conditions need not be identical. Equal entries are not always repeated. Inconclusive results and toxic doses are left out. Rule as the data show it: active = T/C of 150% or more; inactive = T/C below 125%.

Tested on: L1210 leukemia ip in BDF1 mice, survival T/C
Assay: NCI In Vivo Anticancer Drug Screen. Data for tumor model L1210 Leukemia (intraperitoneal) in B6D2F1 (BDF1) mice
Conditions: endpoint: mean survival time, higher = longer survival
Summary of the method: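 Tumor cells were implanted, animals were treated, and survival was followed. The result divides the treated measurement by the vehicle-control measurement.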

[1] = dose: 100.0 mg/kg/injection, schedule: Q01DX001 (ip), vehicle: saline
[2] = dose: 100.0 mg/kg/injection, schedule: Q04DX003 (ip), vehicle: Klucel (hydroxypropylcellulose) (HPC)
[3] = dose: 200.0 mg/kg/injection, schedule: Q01DX001 (ip), vehicle: saline
[4] = dose: 200.0 mg/kg/injection, schedule: Q04DX003 (ip), vehicle: Klucel (hydroxypropylcellulose) (HPC)
[5] = dose: 400.0 mg/kg/injection, schedule: Q01DX001 (ip), vehicle: saline
[6] = dose: 400.0 mg/kg/injection, schedule: Q04DX003 (ip), vehicle: Klucel (hydroxypropylcellulose) (HPC)
[7] = dose: 100.0 mg/kg/injection, schedule: Q01DX009 (ip), vehicle: saline
[8] = dose: 200.0 mg/kg/injection, schedule: Q01DX009 (ip), vehicle: saline
[9] = dose: 400.0 mg/kg/injection, schedule: Q01DX009 (ip), vehicle: saline
[10] = dose: 100.0 mg/kg/injection, schedule: Q04DX003 (ip), vehicle: saline
[11] = dose: 200.0 mg/kg/injection, schedule: Q04DX003 (ip), vehicle: saline
[12] = dose: 400.0 mg/kg/injection, schedule: Q04DX003 (ip), vehicle: saline
[13] = dose: 25.0 mg/kg/injection, schedule: Q04DX002 (ip), vehicle: saline with Tween-80
[14] = dose: 50.0 mg/kg/injection, schedule: Q04DX002 (ip), vehicle: saline with Tween-80
[15] = dose: 100.0 mg/kg/injection, schedule: Q04DX002 (ip), vehicle: saline with Tween-80
[16] = dose: 50.0 mg/kg/injection, schedule: Q01DX001 (ip), vehicle: saline

Measured: T/C

CC1(C)SC(C)(C)N(C=O)C1C(=O)O (stereo not given)
inactive: [1] 94 % of control | dose: 100.0 mg/kg/injection, schedule: Q01DX009 (ip), vehicle: Klucel (hydroxypropylcellulose) (HPC) 93 % of control | [2] 105 % of control | [3] 94 % of control | dose: 200.0 mg/kg/injection, schedule: Q01DX009 (ip), vehicle: Klucel (hydroxypropylcellulose) (HPC) 94 % of control | [4] 95 % of control | [5] 110 % of control | dose: 400.0 mg/kg/injection, schedule: Q01DX009 (ip), vehicle: Klucel (hydroxypropylcellulose) (HPC) 96 % of control | [6] 97 % of control

COC(=O)C(C)(OC)OC
inactive: [7] 104 % of control | [2] 96 % of control | [8] 112 % of control | [4] 100 % of control | [9] 105 % of control | [6] 96 % of control

CN1c2ccc3ccccc3c2Sc2ccc3ccccc3c21
inactive: dose: 100.0 mg/kg/injection, schedule: Q01DX009 (ip), vehicle: acetone 100 % of control | [10] 94 % of control | dose: 200.0 mg/kg/injection, schedule: Q01DX009 (ip), vehicle: acetone 100 % of control | [11] 95 % of control | dose: 400.0 mg/kg/injection, schedule: Q01DX009 (ip), vehicle: acetone 88 % of control | [12] 97 % of control

Nc1nc(=S)nc(N)[nH]1
inactive: dose: 25.0 mg/kg/injection, schedule: Q01DX009 (ip), vehicle: saline 101 % of control | dose: 50.0 mg/kg/injection, schedule: Q01DX009 (ip), vehicle: saline 103 % of control | [7] 97 % of control

CC(C)NC(C)c1c[nH]c2ccccc12 (stereo not given)
inactive: dose: 12.5 mg/kg/injection, schedule: Q04DX003 (ip), vehicle: Klucel (hydroxypropylcellulose) (HPC) 101 % of control | dose: 25.0 mg/kg/injection, schedule: Q04DX003 (ip), vehicle: Klucel (hydroxypropylcellulose) (HPC) 97 % of control | dose: 50.0 mg/kg/injection, schedule: Q04DX003 (ip), vehicle: Klucel (hydroxypropylcellulose) (HPC) 103 % of control

O=c1[nH]cnc2c1ncn2CCCCc1ccccc1
inactive: dose: 100.0 mg/kg/injection, schedule: Q04DX002 (ip), vehicle: Klucel (hydroxypropylcellulose) (HPC) 108 % of control | dose: 200.0 mg/kg/injection, schedule: Q04DX002 (ip), vehicle: Klucel (hydroxypropylcellulose) (HPC) 101 % of control | dose: 400.0 mg/kg/injection, schedule: Q04DX002 (ip), vehicle: Klucel (hydroxypropylcellulose) (HPC) 105 % of control

c1cc[c]([Sn]([O][Sn]([c]2ccccc2)([c]2ccccc2)[c]2ccccc2)([c]2ccccc2)[c]2ccccc2)cc1
inactive: dose: 5.0 mg/kg/injection, schedule: Q01DX001 (ip), vehicle: saline 102 % of control | dose: 10.0 mg/kg/injection, schedule: Q01DX001 (ip), vehicle: saline 100 % of control | dose: 20.0 mg/kg/injection, schedule: Q01DX001 (ip), vehicle: saline 102 % of control | dose: 40.0 mg/kg/injection, schedule: Q01DX001 (ip), vehicle: saline 93 % of control

OC(c1ccccc1)(c1ccccc1)C1CCc2cc3ccccc3nc21 (stereo not given)
inactive: dose: 50.0 mg/kg/injection, schedule: Q01DX009 (ip), vehicle: saline with Tween-80 95 % of control | dose: 100.0 mg/kg/injection, schedule: Q01DX009 (ip), vehicle: saline with Tween-80 98 % of control | dose: 200.0 mg/kg/injection, schedule: Q01DX009 (ip), vehicle: saline with Tween-80 95 % of control

CCCCCCCC/C=C\CCCCCCCCNP(=O)(OC)OC
inactive: [13] 96 % of control | [14] 92 % of control | [15] 101 % of control and 92 % of control

C/C(CC(O)(C(F)(F)F)C(F)(F)F)=N\N1CCCCCC1
inactive: [2] 97 % of control | [4] 103 % of control | [6] 94 % of control

COc1cccc(/C=N/Nc2nnc(N/N=C/c3cccc(OC)c3OC)c3ccccc23)c1OC
inactive: [16] 92 % of control | [1] 92 % of control | [3] 92 % of control | [5] 94 % of control

O=C(O)c1ccc(F)cc1O
inactive: [1] 97 % of control | [3] 109 % of control

OCCN(CCO)CN(CO)c1nc(N(CO)CN(CCO)CCO)nc(N(CO)CN(CCO)CCO)n1
inactive: [7] 100 % of control | [10] 101 % of control | [8] 109 % of control | [11] 101 % of control | [9] 109 % of control | [12] 91 % of control

O=C(CCCC(=O)NNC(=O)Nc1cccc2ccccc12)NNC(=O)Nc1cccc2ccccc12
inactive: [16] 98 % of control | [1] 96 % of control | [3] 87 % of control

CC(=O)[O][Sb]([O]C(C)=O)([c]1ccccc1)([c]1ccccc1)[c]1ccccc1
inactive: [15] 96 % of control | dose: 200.0 mg/kg/injection, schedule: Q04DX002 (ip), vehicle: saline with Tween-80 96 % of control | dose: 400.0 mg/kg/injection, schedule: Q04DX002 (ip), vehicle: saline with Tween-80 96 % of control

CC1=NN(C)C(=O)C1
inactive: [16] 103 % of control | [1] 103 % of control | [3] 103 % of control | [5] 103 % of control

CCC1c2ccc3cc(OC)ccc3c2C(=O)C1CC(=O)O (stereo not given)
inactive: [1] 93 % of control | [3] 107 % of control

Cn1cc(C(O)CN2CCCCC2)c2ccccc21 (stereo not given)
inactive: dose: 25.0 mg/kg/injection, schedule: Q04DX003 (ip), vehicle: saline with Tween-80 104 % of control | dose: 50.0 mg/kg/injection, schedule: Q04DX003 (ip), vehicle: saline with Tween-80 97 % of control

Cn1c(=O)cc[nH]c1=O
inactive: dose: 100.0 mg/kg/injection, schedule: Q01DX001 (ip), vehicle: saline with Tween-80 95 % of control | dose: 200.0 mg/kg/injection, schedule: Q01DX001 (ip), vehicle: saline with Tween-80 98 % of control | dose: 400.0 mg/kg/injection, schedule: Q01DX001 (ip), vehicle: saline with Tween-80 106 % of control

O=[N+]([O-])c1ccc(OP(=O)(N2CCCCC2)N2CCCCC2)cc1
inactive: [13] 93 % of control | [14] 101 % of control | [15] 93 % of control
